According to US9765069B2, “Antimicrobial compounds” (OXFORD UNIVERSITY INNOVATION LIMITED, priority 2012, dated 2017):
Values after ≈ are worked out from the molar mass of the structure shown.

Assays:
S1 = experiment: MIC determination (bacteria), strain S1; format: cell-based, S. aureus; conditions: 2-fold broth dilution
Experimental: (§1) MIC determination (bacteria); MICs were determined based on Clinical and Laboratory Standards Institute (CLSI) methodology (Methods for dilution antimicrobial susceptibility tests for bacteria that grow aerobically; Approved Standard—seventh edition. 2006, M7-A7, CLSI, Wayne Pa.) by a 2-fold broth dilution technique in Mueller Hinton (pH7.4 Biorad). For S. pneumoniae, the medium was supplemented with 2.5% laked horse blood. For H. influenzae, the medium was haemophilus test medium (H.T.M.). Overnight cultures were diluted to obtain the final inoculum of 10^5 cfu/well. Incubation was 37° C. overnight in ambient air. The MIC was defined as the lowest concentration which inhibited all visual growth and expressed in μg/ml. For each bacterial species, all of the molecules were tested in the same experiment in order to give a head-to-head comparison.

P9B = experiment: MIC determination (bacteria), strain P9B; format: cell-based, S. pneumoniae; conditions: 2-fold broth dilution
Experimental: as §1

E. Coli RNAP = E. Coli RNAP (Escherichia coli, UniProt P0A8T7+P0A8V2); experiment: In vitro activity against E. Coli RNAP; format: biochemical
Sequence of E. Coli RNAP (P0A8V2 whole entry): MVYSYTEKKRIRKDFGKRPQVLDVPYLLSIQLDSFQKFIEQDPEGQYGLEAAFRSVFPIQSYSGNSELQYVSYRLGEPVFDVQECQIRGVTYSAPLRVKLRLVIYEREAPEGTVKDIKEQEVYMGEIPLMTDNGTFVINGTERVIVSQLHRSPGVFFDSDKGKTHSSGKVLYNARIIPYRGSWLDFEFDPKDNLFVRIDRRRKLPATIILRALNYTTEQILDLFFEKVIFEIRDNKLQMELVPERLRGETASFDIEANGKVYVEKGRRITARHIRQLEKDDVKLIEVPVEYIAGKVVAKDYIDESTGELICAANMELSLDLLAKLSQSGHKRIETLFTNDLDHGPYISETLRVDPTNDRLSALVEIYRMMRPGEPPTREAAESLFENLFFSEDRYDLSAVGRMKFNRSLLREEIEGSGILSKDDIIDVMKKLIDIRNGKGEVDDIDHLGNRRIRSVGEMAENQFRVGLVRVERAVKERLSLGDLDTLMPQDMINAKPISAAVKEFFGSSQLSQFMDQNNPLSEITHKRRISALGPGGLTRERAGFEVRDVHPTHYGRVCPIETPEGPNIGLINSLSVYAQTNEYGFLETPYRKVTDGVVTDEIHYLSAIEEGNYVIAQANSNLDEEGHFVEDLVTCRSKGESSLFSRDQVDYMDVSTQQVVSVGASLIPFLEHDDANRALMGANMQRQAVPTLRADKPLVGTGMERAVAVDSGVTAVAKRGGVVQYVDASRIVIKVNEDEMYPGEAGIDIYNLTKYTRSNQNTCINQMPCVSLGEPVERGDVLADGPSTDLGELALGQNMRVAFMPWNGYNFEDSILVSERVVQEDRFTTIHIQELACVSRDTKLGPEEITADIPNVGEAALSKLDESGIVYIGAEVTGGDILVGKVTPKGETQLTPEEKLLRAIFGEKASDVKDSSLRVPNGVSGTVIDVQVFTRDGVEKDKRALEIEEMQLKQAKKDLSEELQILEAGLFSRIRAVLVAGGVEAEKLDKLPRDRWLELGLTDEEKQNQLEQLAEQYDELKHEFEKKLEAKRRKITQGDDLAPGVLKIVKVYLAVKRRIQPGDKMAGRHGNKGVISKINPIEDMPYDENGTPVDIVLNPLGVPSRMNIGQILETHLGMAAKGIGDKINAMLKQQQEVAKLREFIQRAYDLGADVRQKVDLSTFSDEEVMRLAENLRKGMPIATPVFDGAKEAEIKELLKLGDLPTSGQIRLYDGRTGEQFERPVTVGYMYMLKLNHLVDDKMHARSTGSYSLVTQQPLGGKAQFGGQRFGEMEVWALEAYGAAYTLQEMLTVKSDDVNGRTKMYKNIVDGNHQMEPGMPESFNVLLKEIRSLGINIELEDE
Sequence of E. Coli RNAP (P0A8T7 whole entry): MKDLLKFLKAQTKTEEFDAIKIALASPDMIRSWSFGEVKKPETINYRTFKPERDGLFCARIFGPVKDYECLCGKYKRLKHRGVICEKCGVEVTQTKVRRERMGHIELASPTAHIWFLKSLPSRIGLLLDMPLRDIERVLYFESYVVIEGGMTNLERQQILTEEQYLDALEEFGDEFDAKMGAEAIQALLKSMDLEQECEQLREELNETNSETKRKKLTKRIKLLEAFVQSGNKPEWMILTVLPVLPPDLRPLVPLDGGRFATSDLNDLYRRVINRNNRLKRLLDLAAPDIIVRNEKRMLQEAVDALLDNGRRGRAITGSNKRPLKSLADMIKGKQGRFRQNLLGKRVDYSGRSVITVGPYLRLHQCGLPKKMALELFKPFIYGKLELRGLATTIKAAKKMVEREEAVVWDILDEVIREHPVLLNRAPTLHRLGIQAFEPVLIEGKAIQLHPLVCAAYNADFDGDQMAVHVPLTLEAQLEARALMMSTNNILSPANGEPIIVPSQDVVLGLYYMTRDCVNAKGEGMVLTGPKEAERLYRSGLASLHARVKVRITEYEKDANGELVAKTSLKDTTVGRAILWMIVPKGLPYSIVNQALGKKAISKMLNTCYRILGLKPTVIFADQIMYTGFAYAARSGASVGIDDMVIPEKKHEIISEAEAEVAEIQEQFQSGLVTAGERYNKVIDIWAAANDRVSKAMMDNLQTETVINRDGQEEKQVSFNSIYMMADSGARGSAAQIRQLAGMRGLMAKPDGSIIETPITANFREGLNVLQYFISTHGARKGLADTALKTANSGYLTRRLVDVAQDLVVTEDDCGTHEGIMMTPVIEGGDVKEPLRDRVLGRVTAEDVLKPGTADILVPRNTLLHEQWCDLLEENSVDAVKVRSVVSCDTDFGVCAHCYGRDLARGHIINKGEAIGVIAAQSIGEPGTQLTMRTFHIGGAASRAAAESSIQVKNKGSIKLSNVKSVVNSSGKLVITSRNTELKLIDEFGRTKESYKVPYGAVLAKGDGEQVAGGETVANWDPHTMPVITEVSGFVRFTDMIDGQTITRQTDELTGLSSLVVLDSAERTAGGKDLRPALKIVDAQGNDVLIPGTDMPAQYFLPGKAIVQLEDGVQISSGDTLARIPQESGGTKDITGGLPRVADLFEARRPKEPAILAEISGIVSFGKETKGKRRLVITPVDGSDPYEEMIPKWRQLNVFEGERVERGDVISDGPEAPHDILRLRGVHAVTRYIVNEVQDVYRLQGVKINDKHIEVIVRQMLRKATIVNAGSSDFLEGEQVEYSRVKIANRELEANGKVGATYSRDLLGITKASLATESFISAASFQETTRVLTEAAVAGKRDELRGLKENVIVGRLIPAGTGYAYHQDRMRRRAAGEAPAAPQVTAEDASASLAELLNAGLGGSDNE
Sequence of E. Coli RNAP (P0A7Z4 whole entry partner): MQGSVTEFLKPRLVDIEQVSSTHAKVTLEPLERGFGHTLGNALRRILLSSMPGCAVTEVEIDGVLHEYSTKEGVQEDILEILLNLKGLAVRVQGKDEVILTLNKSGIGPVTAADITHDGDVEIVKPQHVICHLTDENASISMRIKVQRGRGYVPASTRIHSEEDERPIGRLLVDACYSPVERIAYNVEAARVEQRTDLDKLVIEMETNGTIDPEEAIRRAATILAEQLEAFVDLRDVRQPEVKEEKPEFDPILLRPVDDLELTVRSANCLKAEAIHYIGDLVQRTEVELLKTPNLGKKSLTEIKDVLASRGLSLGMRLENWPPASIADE
Sequence of E. Coli RNAP (P0A800 whole entry partner): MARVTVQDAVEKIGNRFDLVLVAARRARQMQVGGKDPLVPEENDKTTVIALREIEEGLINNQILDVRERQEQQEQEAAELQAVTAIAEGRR
From the text: (§2) These properties can be determined according to techniques that are well known in the art.

P1 = experiment: MIC determination (bacteria), strain P1; format: cell-based, S. pneumoniae; conditions: 2-fold broth dilution
Experimental: as §1

E1 = experiment: MIC determination (bacteria), strain E1; format: cell-based, enterococcus; conditions: 2-fold broth dilution
Experimental: as §1

[1] = test system: S2 (S. aureus 2, MRSA in vivo); experiment: MIC determination (bacteria), strain S2; format: cell-based; conditions: 2-fold broth dilution
Experimental: as §1

H3 = experiment: MIC determination (bacteria), strain H3; format: cell-based, H. influenzae; conditions: haemophilus test medium
Experimental: as §1

S4 = experiment: MIC determination (bacteria), strain S4; format: cell-based, S. aureus; conditions: 2-fold broth dilution
Experimental: as §1

[2] = aqueous solubility at pH 7.4; format: physicochemical; conditions: aqueous solubility at pH 7.4 (water with 2% DMSO)
From the text: as §2

P9 = experiment: MIC determination (bacteria), strain P9; format: cell-based, S. pneumoniae; conditions: 2-fold broth dilution
Experimental: as §1

E2 = experiment: MIC determination (bacteria), strain E2; format: cell-based, enterococcus; conditions: 2-fold broth dilution
Experimental: as §1

S. aureus membrane = experiment: In vitro activity in depolarization of S. aureus membrane; format: cell-based; conditions: read-out: DEP (IC50)
From the text: as §2

[3] = test system: human peripheral blood cells; experiment: in vitro toxicities human peripheral blood cells; format: cell-based; conditions: human peripheral blood cells
From the text: as §2

[4] = test system: human embryonic kidney 293 cells; experiment: in vitro toxicities against human embryonic kidney 293 cells; format: cell-based; conditions: human embryonic kidney 293 cells
From the text: as §2

H4 = experiment: MIC determination (bacteria), strain H4; format: cell-based, H. influenzae; conditions: haemophilus test medium
Experimental: as §1

[5] = test system: mammalian_red blood cell membrane; experiment: In vitro mammalian red blood cell membrane lysis activity; format: cell-based; conditions: Active or inactive at 100 μM
From the text: as §2

S26 = experiment: MIC determination (bacteria), strain S26; format: cell-based, S. aureus; conditions: 2-fold broth dilution
Experimental: as §1

| Compound | IC50 (E. Coli RNAP) [µM] | SOL [2] [µM] | IC50 (S. aureus membrane) [µM] | PMBC (LD50, μM) [3] [µM] | Hek293 (LD50, μM) [4] [µM] | RBC membrane lysis activity (active/inactive) [5] | MIC S1 (S1; Table 2) [µg/mL] | MIC P9B (P9B; Table 2) [µg/mL] | MIC P1 (P1; Table 2) [µg/mL] | MIC E1 (E1; Table 2) [µg/mL] | MIC S2 ([1]; Table 2) [µg/mL] | MIC H3 (H3; Table 2) [µg/mL] | MIC S4 (S4; Table 2) [µg/mL] | MIC P9 (P9; Table 2) [µg/mL] | MIC E2 (E2; Table 2) [µg/mL] | MIC H4 (H4; Table 2 and its footnote f) [µg/mL] | MIC S26 (S26; Table 2) [µg/mL] | other results |
| --- | --- | --- | --- | --- | --- | --- | --- | --- | --- | --- | --- | --- | --- | --- | --- | --- | --- | --- |
| CCCCCCCCCC(O)=C1C(=O)CCN(C(=O)c2ccccc2)C1=O [25a] | > 100 | >300 | 83.6 | >90.9 | >90.9 | Inactive^d |  |  |  |  |  |  |  |  |  |  |  | MIC S1 (S1; Table 1): 2 µg/mL (≈ 5.38 µM); MIC P9B (P9B; Table 1): 4 µg/mL (≈ 10.8 µM); MIC P1 (P1; Table 1): 0.5 µg/mL (≈ 1.35 µM); MIC E1 (E1; Table 1): 2 µg/mL (≈ 5.38 µM); MIC S2 ([1]; Table 1): 4 µg/mL (≈ 10.8 µM); MIC H3 (H3; Table 1): 16 µg/mL (≈ 43.1 µM); MIC S4 (S4; Table 1): 2 µg/mL (≈ 5.38 µM); MIC P9 (P9; Table 1): 0.5 µg/mL (≈ 1.35 µM); MIC E2 (E2; Table 1): 4 µg/mL (≈ 10.8 µM); MIC H4 (H4; Table 1): 8 µg/mL (≈ 21.5 µM); MIC S26 (S26; Table 1): 4 µg/mL (≈ 10.8 µM) |
| CCCCCCCCCC(O)=C1C(=O)CCN(C(=O)c2ccc(OC)cc2)C1=O [25d] |  | 150 to 300 | 69 | 90.9 | 90.9 | Active |  |  |  |  |  |  |  |  |  |  |  | MIC S1 (S1; Table 1): 8 µg/mL (≈ 19.9 µM); MIC P9B (P9B; Table 1): 8 µg/mL (≈ 19.9 µM); MIC P1 (P1; Table 1): 2 µg/mL (≈ 4.98 µM); MIC E1 (E1; Table 1): 4 µg/mL (≈ 9.96 µM); MIC S2 ([1]; Table 1): 4 µg/mL (≈ 9.96 µM); MIC H3 (H3; Table 1): 64 µg/mL (≈ 159 µM); MIC S4 (S4; Table 1): 4 µg/mL (≈ 9.96 µM); MIC P9 (P9; Table 1): 2 µg/mL (≈ 4.98 µM); MIC E2 (E2; Table 1): 4 µg/mL (≈ 9.96 µM); MIC H4 (H4; Table 1): 8 µg/mL (≈ 19.9 µM); MIC S26 (S26; Table 1): 8 µg/mL (≈ 19.9 µM) |
| CCCCCCC(=O)N1CC(=O)C(=C(O)CC2CC3CCC2C3)C1=O (stereo not drawn) [27a] |  |  | > 100 | 90.9 | 90.9 | Inactive^d | 1 (≈ 2.88 µM) | 4 (≈ 11.5 µM) | 1 (≈ 2.88 µM) | 1 (≈ 2.88 µM) | 2 (≈ 5.76 µM) | 4 (≈ 11.5 µM) | 2 (≈ 5.76 µM) | 0.5 (≈ 1.44 µM) | 2 (≈ 5.76 µM) | 1 (≈ 2.88 µM) | 4 (≈ 11.5 µM) |  |
| CCCCCCC(=O)N1CC(=O)C(=C(O)CCCC2CCCCC2)C1=O [27c] | > 100 | >200 | > 100 | 90.9 | 30.3 |  | 0.25 (≈ 0.688 µM) | 2 (≈ 5.5 µM) | 0.12 (≈ 0.33 µM) | 0.5 (≈ 1.38 µM) | 1 (≈ 2.75 µM) | 2 (≈ 5.5 µM) | 0.5 (≈ 1.38 µM) | <0.06 | 0.12 (≈ 0.33 µM) | 1 (≈ 2.75 µM) | 1 (≈ 2.75 µM) |  |
| CCCCCCC(=O)N1CC(=O)C(=C(O)CC(C)CC(C)(C)C)C1=O (stereo not drawn) [27h] | > 100 | 150 to 300 |  | 90.9 | 30.3 |  | 0.25 (≈ 0.711 µM) | 1 (≈ 2.85 µM) | <0.06 | 0.25 (≈ 0.711 µM) | 0.5 (≈ 1.42 µM) | 2 (≈ 5.69 µM) | 0.5 (≈ 1.42 µM) | <0.06 | 0.25 (≈ 0.711 µM) | 2 (≈ 5.69 µM) | 0.5 (≈ 1.42 µM) |  |
| CCCCCCC(=O)N1CC(=O)C(=C(O)CCCOc2ccc(Cl)cc2C)C1=O [28h] | 33 | >300 |  | 90.9 | 30.3 |  | 1 (≈ 2.37 µM) | 4 (≈ 9.48 µM) | 0.5 (≈ 1.19 µM) | 0.5 (≈ 1.19 µM) | 2 (≈ 4.74 µM) | 8 (≈ 19 µM) | 4 (≈ 9.48 µM) | 0.5 (≈ 1.19 µM) | 0.5 (≈ 1.19 µM) | 4 (≈ 9.48 µM) | 4 (≈ 9.48 µM) |  |
| CC(C)CC1C(=O)C(=C(O)CCCCCc2ccccc2)C(=O)N1C(=O)c1ccccc1 (stereo not drawn) [30a] |  | >300 | > 100 | 90.9 | >90.9 | Inactive^d | 2 (≈ 4.61 µM) | 4 (≈ 9.23 µM) | 1 (≈ 2.31 µM) | 2 (≈ 4.61 µM) | 2 (≈ 4.61 µM) | >64 | 2 (≈ 4.61 µM) | 1 (≈ 2.31 µM) | 2 (≈ 4.61 µM) | 8 (≈ 18.5 µM) | 4 (≈ 9.23 µM) |  |
| CNC(=O)[C@@H](C)[C@H]1C(=O)/C(=C(O)/C=C/C(C)=C/[C@@H](C)[C@H]2O[C@@]3(C)O[C@H](C=C[C@@]34CO4)[C@@H]2C)C(=O)N1[C@@H]1CC[C@H](O)[C@H](C)O1 [streptolydigin, reference compound] | 38 |  |  |  |  |  |  |  |  |  |  |  |  |  |  |  |  |  |
